# Assay results as given in US20230012368A1 (Hoffmann-La Roche Inc., priority 2018, published 2023).
# Counter-ions that a name gives are not always drawn.
# Tested on: Acinetobacter baumannii ATCC 17978
# Test: Antimicrobial susceptibility testing: 90% growth inhibitory concentration (IC90) determination
# Format: cell-based
# Conditions: 90% growth inhibitory concentration; Acinetobacter baumannii ATCC17978; Iso-Sensitest broth, OD 600 nm over 16h; read-out: ATCC17978 IC90
# Outline: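 Growth of the Acinetobacter baumannii strain was followed by optical density at 600 nm every 20 minutes for 16h at 35±2° C. Inoculum was ~5×10^(5) CFU/ml in Iso-Sensitest medium, with twofold compound dilutions (e.g. 50 to 0.097 μM final). The 90% inhibitory concentration was derived in log-phase growth.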
row,SMILES,IC90 [nM]
1,"CNCC1CN(CCN(C)C(=O)c2ccc(Nc3nccn4c(-c5ccc(OC)c(F)c5)cnc34)cc2C)CCO1 (centres unmarked) [Example 109, 4-[[3-(3-fluoro-4-methoxy-phenyl)imidazo[1,2-a]pyrazin-8-yl]amino]-N,2-dimethyl-N-[2-[2-(methylaminomethyl)morpholin-4-yl]ethyl]benzamide hydrochloride]",960
2,"CCc1cc(Nc2nccn3c(-c4ccc(Cl)c(F)c4F)cnc23)ccc1C(=O)N(C)CCCN [Example 282, N-(3-aminopropyl)-4-[[3-(4-chloro-2,3-difluorophenyl)imidazo[1,2-a]pyrazin-8-yl]amino]-2-ethyl-N-methylbenzamide; hydrochloride]",1400

# Same assay, conditions: Acinetobacter baumannii, ATCC17978, 16 h, 90% growth inhibitory concentration; Acinetobacter baumannii ATCC17978; Iso-Sensitest broth, OD 600 nm over 16h; read-out: ATCC17978 IC90
row,IC90 [nM],SMILES
1,200,"CCc1cc(Nc2nccn3c(-c4ccc(OC)c(F)c4F)cnc23)ccc1C(=O)NCCC1CCNCC1 [Example 388, 4-[[3-(2,3-difluoro-4-methoxyphenyl)imidazo[1,2-a]pyrazin-8-yl]amino]-2-ethyl-N-(2-piperidin-4-ylethyl)benzamide; hydrochlo-ride]"
2,150,"CCc1cc(Nc2nccn3c(-c4ccc(OC(F)F)c(F)c4F)cnc23)ccc1C(=O)NCC1CCNC1 (centres unmarked) [Example 550, 4-[[3-[4-(difluoromethoxy)-2,3-difluorophenyl]imidazo[1,2-a]pyrazin-8-yl]amino]-2-ethyl-N-(pyrrolidin-3-ylmethyl)benzamide; formic acid]"
3,270,"CCc1cc(Nc2nccn3c(-c4ccc(OC)c(F)c4F)cnc23)ccc1C(=O)NCC1CCN(CC(=O)O)CC1 [Example 559, 2-[4-[[[4-[[3-(2,3-difluoro-4-methoxy-phenyl)imidazo[1,2-a]pyrazin-8-yl]amino]-2-ethyl-benzoyl]amino]methyl]-1-piperidyl]acetic acid]"
4,150,"CN(CCC1CCNCC1)C(=O)c1ccc(Nc2nccn3c(-c4ccc(OC(F)F)cc4)cnc23)cc1Cl [Example 23, 2-chloro-4-((3-(4-(difluoromethoxy)phenyl)imidazo[1,2-a]pyrazin-8-yl)amino)-N-methyl-N-(2-(piperidin-4-yl)ethyl)benzamide hydrochloride]"
5,84,"CCc1cc(Nc2nccn3c(-c4ccc(OC)c(F)c4F)cnc23)ccc1C(=O)NCc1cnc(N)s1 [Example 569, N-((2-aminothiazol-5-yl)methyl)-4-((3-(2,3-difluoro-4-methoxyphenyl)imidazo[1,2-a]pyrazin-8-yl)amino)-2-ethylbenzamide]"
6,760,"Cc1cc(Nc2nccn3c(-c4ccc(OC(F)F)cc4)cnc23)ccc1C(=O)N(C)CCC1CCN(CCCC(=O)O)CC1 [Example 443, 4-(4-(2-(4-((3-(4-(difluoromethoxy)phenyl)im-idazo[1,2-a]pyrazin-8-yl)amino)-N,2-dimethylbenzamido)ethyl)piperidin-1-yl)butanoic acid hydrochloride]"
7,260,"Cc1cc(Nc2nccn3c(-c4ccc(Cl)cc4)cnc23)ccc1C(=O)NCCC1CCN(C)CC1 [Example 186, 4-[[3-(4-chlorophenyl)imidazo[1,2-a]pyrazin-8-yl]amino]-2-methyl-N-[2-(1-methylpiperidin-4-yl)ethyl]benzamide]"
8,44,"COc1ccc(-c2cnc3c(Nc4ccc(C(=O)NCCCCCN)c(Cl)c4)nccn23)c(F)c1F [Example 492, N-(5-aminopentyl)-2-chloro-4-((3-(2,3-difluoro-4-methoxyphenyl)imidazo[1,2-a]pyrazin-8-yl)amino)benzamide hydrochloride]"
9,240,"COc1ccc(-c2cnc3c(Nc4ccc(C(=O)N(C)Cc5ccncn5)c(C)c4)nccn23)cc1F [Example 39, 4-[[3-(3-fluoro-4-methoxy-phenyl)imidazo[1,2-a]pyrazin-8-yl]amino]-N,2-dimethyl-N-(pyrimidin-4-ylmethyl)benzamide]"
10,5600,"Cc1cc(Nc2nccn3c(-c4ccc(OC(F)F)cc4)cnc23)ccc1C(=O)NC[C@@H](C)N [Example 268, N-[(2R)-2-aminopropyl]-4-[[3-[4-(difluoromethoxy)phenyl]im-idazo[1,2-a]pyrazin-8-yl]amino]-2-methylbenzamide;hydrochlo-ride]"
11,810,COc1ccc(-c2cnc3c(Nc4ccc(C(=N)OCC(=N)N(C)C)c(C)c4)nccn23)cc1 [Example 16]
12,320,"CCc1cc(Nc2nccn3c(-c4ccc(OC)c(F)c4F)cnc23)ccc1C(=O)NCCNC(=O)[C@@H](N)CN [Example 400, N-[2-[[(2S)-2,3-diaminopropanoyl]amino]eth-yl]-4-[[3-(2,3-difluoro-4-methoxy-phenyl)imidazo[1,2-a]pyrazin-8-yl]amino]-2-ethyl-benzamide; formic acid]"
13,330,"CCc1cc(Nc2nccn3c(-c4ccc(Oc5ccccn5)c(F)c4F)cnc23)ccc1C(=O)NCCCCC(=O)N1CCN[C@H](CO)C1 [Example 477, 4-[[3-[2,3-difluoro-4-(2-pyridyloxy)phenyl]imidazo [1,2-a]pyrazin-8-yl]amino]-2-ethyl-N-[5-[(3S)-3-(hydroxymethyl)piperazin-1-yl]-5-oxo-pentyl]benzamide]"
14,1900,"Cc1cc(Nc2nccn3c(-c4ccc(Cl)c(F)c4F)cnc23)ccc1C(=O)N(C)CCN [Example 241, N-(2-aminoethyl)-4-[[3-(4-chloro-2,3-difluorophenyl)imidazo[1,2-a]pyrazin-8-yl]amino]-N,2-dimethylbenzamide;hydrochlo-ride]"
15,210,"CCc1cc(Nc2nccn3c(-c4ccc(OC)c(F)c4F)cnc23)ccc1C(=O)NCC1(F)CNC1 [Example 526, 4-((3-(2,3-difluoro-4-methoxyphenyl)imidazo[1,2-a]pyrazin-8-yl)amino)-2-ethyl-N-((3-fluoroazetidin-3-yl)methyl)benzamide hydrochloride]"
16,9300,"Cc1cc(Nc2nccn3c(-c4ccc(OC(F)F)cc4)cnc23)ccc1C(=O)NCCCC[C@H](N)C(=O)O [Example 271, (2S)-2-amino-6-[[4-[[3-[4-(difluoromethoxy)phenyl]im-idazo[1,2-a]pyrazin-8-yl]amino]-2-methylbenzoyl]amino]hexa-noic acid]"
17,240,"COc1ccc(-c2cnc3c(Nc4ccc(C(=O)N(C)C)c(C)c4)nccn23)cc1 [Example 13, 4-((3-(4-methoxyphenyl)imidazo [1,2-a]pyrazin-8-yl)amino)-N,N,2-trimethylbenzamide]"
18,390,"CNCCCN1CCc2cc(Nc3nccn4c(-c5ccc(OC)c(F)c5F)cnc34)ccc2C1=O [Example 568, 6-[[3-(2,3-difluoro-4-methoxy-phenyl)imidazo[1,2-a]pyrazin-8-yl]amino]-2-[3-(methylamino)propyl]-3,4-dihydroisoquinolin-1-one]"
19,190,"CCc1cc(Nc2nccn3c(-c4ccc(OC)c(F)c4F)cnc23)ccc1C(=O)NC(C)(C)CNC(=O)[C@@H](N)CCCCN [Example 326, N-[1-[[(2S)-2,6-diaminohexanoyl]amino]-2-methylpropan-2-yl]-4-[[3-(2,3-difluoro-4-methoxyphenyl)imidazo[1,2-a]pyrazin-8-yl]amino]-2-ethylbenzamide]"
20,1200,"CCN(CC)C(=O)c1ccc(Nc2nccn3c(-c4ccc(OC)cc4)cnc23)cc1C [Example 220, N,N-diethyl-4-[[3-(4-methoxyphenyl)imidazo[1,2-a]pyrazin-8-yl]amino]-2-methylbenzamide]"
21,2200,"Cc1cc(Nc2nccn3c(-c4ccc(OC(F)F)cc4)cnc23)ccc1C(=O)N(C)CCN1CCOC(C)(C)C1 [Example 255, 4-[[3-[4-(difluoromethoxy)phenyl]im-idazo[1,2-a]pyrazin-8-yl]amino]-N-[2-(2,2-dimethylmorpholin-4-yl)ethyl]-N,2-dimethylbenzamide]"
22,520,"COc1ccc(-c2cnc3c(Nc4ccc(C(=O)NCCNC(=O)CC[C@@H]5NC5=O)c(C)c4)nccn23)c(F)c1F [Example 337, 4-[[3-(2,3-difluoro-4-methoxyphenyl)imidazo[1,2-a]pyrazin-8-yl]amino]-2-methyl-N-[2-[3-[(2S)-3-oxoaziridin-2-yl]propanoylamino]ethyl]benz-amide]"
23,220,"CCc1cc(Nc2nccn3c(-c4ccc(OC)c(F)c4F)cnc23)ccc1C(=O)NCC(C)CNC(=O)[C@@H](N)CCNC(=N)N (mixture of isomers) [Example 401, rac-N-(3-((R)-2-amino-4-guanidinobutanamido)-2-methylpropyl)-4-((3-(2,3-difluoro-4-methoxyphenyl)imidazo[1,2-a]pyrazin-8-yl)amino)-2-ethylbenzamide diformate]"
24,570,"CCc1cc(Nc2nccn3c(-c4ccc(OC(F)F)c(F)c4F)cnc23)ccc1C(=O)NC(C)CCN (centres unmarked) [Example 402, N-(4-aminobutan-2-yl)-4-((3-(4-(difluoromethoxy)-2,3-difluorophenyl)imidazo[1,2-a]pyrazin-8-yl)amino)-2-ethylbenzamide hydrochloride]"
25,780,"CCc1cc(Nc2nccn3c(-c4ccc(OC)c(F)c4F)cnc23)ccc1C(=O)NCC(C)(C)CN [Example 98, N-(3-amino-2,2-dimethylpropyl)-4-((3-(2,3-difluoro-4-methoxyphenyl)imidazo [1,2-a]pyrazin-8-yl)amino)-2-ethylbenzamide hydrochloride]"
26,3000,"COc1ccc(-c2cnc3c(Nc4ccc(C(=O)NC[C@@H](O)[C@@H](O)[C@H](O)[C@H](O)CO)c(C)c4)nccn23)cc1F [Example 288, 4-[[3-(3-fluoro-4-methoxyphenyl)imidazo[1,2-a]pyrazin-8-yl]amino]-2-methyl-N-[(2R,3R,4R,5R)-2,3,4,5,6-pentahydroxyhexyl]benzamide]"
27,80,"CCc1cc(Nc2nccn3c(-c4ccc(OC)c(F)c4F)cnc23)ccc1C(=O)NCCCCC(=O)N1CCN[C@H](CO)C1 [Example 163, 4-[[3-(2,3-difluoro-4-methoxy-phenyl)imidazo[1,2-a]pyrazin-8-yl]amino]-2-ethyl-N-[5-[(3S)-3-(hydroxymethyl)piperazin-1-yl]-5-oxo-pentyl]benzamide]"
